Measurements reported in US8030043B2, “β-galactoside-α2,3-sialyltransferase, a gene encoding thereof, and a method for producing thereof” (Japan Tobacco Inc., priority 2005, dated 2011).

Experiments:
[1] = tested on: FAJ-N1C0 recombinant β-galactoside-α2,3-sialyltransferase; assay: Acceptor substrate specificity of recombinant β-galactoside-α2,3-sialyltransferase (mono-, disaccharides); assay type: biochemical, Vibrio sp.; set-up: FAJ-N1C0 Sialyltransferase activity Relative activity (%): tested at 42 mM; details: 20° C., 14 hours; for FAJ-N1C0 Sialyltransferase activity: Table 16: 1 μmol acceptor, pH 5.0, about 2.5 mU enzyme; for FAJ-N1C0 Sialyltransferase activity Relative activity (%): Table 16: activity toward lactose set to 100
Source text: (§1) Cell homogenates prepared from E. coli cells introduced with the third clone of ISH467-N2C0, the first clone of ISH224-N1C0 and the first clone of FAJ-N1C0 were each purified by ion exchange chromatography and hydroxyapatite chromatography to give an electrophoretically single band. The thus purified β-galactoside-α2,3-sialyltransferases were used in the following experiment in order to examine the presence or absence of sialyltransferase activity toward various monosaccharides, disaccharides and trisaccharides.
(§2) A reaction solution (24 μl) was prepared to contain CMP-^14C-NeuAc-containing CMP-NeuAc as a glycosyl donor substrate ([…], final concentration in the reaction solution: […]), any of various glycosyl acceptor substrates dissolved in 20 mM cacodylate buffer (pH 5.0) (1 μmol, final concentration in the reaction solution: 42 mM), sialyltransferase (in an amount as indicated in the footnotes of the tables below) and NaCl (final concentration in the reaction solution: 500 mM), and reacted under conditions as indicated in the footnotes of the tables below. The monosaccharides used as glycosyl acceptor substrates were the following 10 types: methyl-α-D-galactopyranoside (Gal-α-OMe), methyl-(β-D-galactopyranoside (Gal-β-OMe), methyl-α-D-glucopyranoside (Glc-α-OMe), methyl-β-D-glucopyranoside (Glc-β-OMe), methyl-α-D-mannopyranoside (Man-α-OMe), methyl-β-D-mannopyranoside (Man-β-OMe), methyl-α-D-fucopyranoside (Fuc-α-OMe), methyl-β-D-fucopyranoside (Fuc-β-OMe), N-acetylgalactosamine (GalNAc), and N-acetylglucosamine ([…]). The disaccharides used were the following 5 types: lactose (Gal-β1,4-Glc), N-acetyllactosamine (Gal-β1,4-GlcNAc), methyl-β-D-galactopyranosyl-β1,3-N-acetylglucosaminide (Gal-β1,3-GlcNAc-β-OMe), methyl-α-D-galactopyranosyl-α1,3-galactopyranoside (Gal-α-1,3-Gal-α-OMe), and methyl-β-D-galactopyranosyl-β1,3-galactopyranoside (Gal-β1,3-Gal-β-OMe). The trisaccharide used was 2′-fucosyllactose (Fuc-α1,2-Galβ1,4-Glc). It should be noted that the final concentration was set to 8.4 mM for the sugar chains shown in Table 18, i.e., methyl-α-D-galactopyranosyl-α1,3-galactopyranoside (Gal-α1,3-Gal-α-OMe), methyl-β-D-galactopyranosyl-β1,3-galactopyranoside (Gal-β1,3-Gal-β-OMe) and 2′-fucosyllactose (Fuc-α1,2-Gal-β1,4-Glc).
(§3) After completion of the enzymatic reaction, 1.98 ml of 5 mM phosphate buffer (pH 6.8) was added to the reaction solution to stop the enzymatic reaction. Then, the enzymatic reaction solution was diluted with 5 mM phosphate buffer (pH 6.8) and applied in a volume of 2 ml to a AG1−×2 Resin (PO4^3− form, 0.2×2 cm) column. This column was prepared as follows: AG1-x 2 Resin (OH^− form, BIO-RAD) was suspended in 1 M phosphate buffer (pH 6.8), and after 30 minutes, the resin was washed with distilled water and then suspended in distilled water. The eluate (0 to 2 ml) from this column was measured for its radioactivity. The eluate from this column contains the unreacted glycosyl acceptor substrate and the ^14C-NeuAc (N-acetylneuraminic acid)-bound reaction product which was generated by the reaction, but unreacted CMP-14C-NeuAc is still retained on the column. Thus, the radioactivity of ^14C from each sialic acid-containing sugar chain generated as a result of the enzymatic reaction arises exclusively from the reaction product, so that the radioactivity of this fraction can be used to calculate the enzyme activity.
(§4) In the manner described above, the radioactivity of NeuAc transferred to each glycosyl acceptor substrate was measured to calculate the amount of transferred sialic acid.

[2] = tested on: ISH224-N1C0 recombinant β-galactoside-α2,3-sialyltransferase; assay: Acceptor substrate specificity of recombinant β-galactoside-α2,3-sialyltransferase (mono-, di-, trisaccharides); assay type: biochemical, Photobacterium sp.
Source text: as §1, §2, §3, §4

[3] = tested on: α2,3-sialyltransferase derived from strain JT-ISH-467; assay: Sialic acid transfer to monosaccharides and disaccharides by partially purified α2,3-sialyltransferase (CMP-14C-NeuAc donor, radioactivity of column eluate); assay type: biochemical, Photobacterium phosphoreum; details: 25° C., 4 hours; acceptor 10 μmol (200 mM); CMP-14C-NeuAc 400 nmol; sialyltransferase 0.13 mU; NaCl 500 mM
Method: A cell homogenate prepared from the strain JT-ISH-467 was partially purified by ion exchange chromatography, hydroxyapatite chromatography, and gel filtration chromatography. The thus partially purified α2,3-sialyltransferase was used in the following experiment in order to confirm the transfer of sialic acid to various monosaccharides and disaccharides.
The enzymatic reaction was carried out at 25° C. for 4 hours in a reaction solution (24 μl) prepared to contain CMP-^14C-NeuAc as a glycosyl donor substrate (400 nmol (15600 cpm), final concentration in the reaction solution: 16.6 mM), any of various glycosyl acceptor substrates (10 μmol, final concentration in the reaction solution: 200 mM), sialyltransferase (0.13 mU) and NaCl (final concentration in the reaction solution: 500 mM). The monosaccharides and disaccharides used as glycosyl acceptor substrates were the following 6 substances: methyl-α-D-galactopyranoside (Gal-α-OMe), methyl-β-D-galactopyranoside (Gal-β-OMe), N-acetylgalactosamine (GalNAc), lactose (Gal-β1,4-Glc), N-acetyllactosamine (Gal-β1,4-GlcNAc), and methyl-β-D-galactopyranosyl-β-1,3-N-acetylglucosaminide (Gal-β1,3-GlcNAc-β-OMe).
as §3, with “AG1-×2” for “AG1−×2”, “AG1-×2” for “AG1-x 2”, “CMP-^14C-NeuAc” for “CMP-14C-NeuAc”
as §4

[4] = tested on: ISH467-N2C0 recombinant β-galactoside-α2,3-sialyltransferase; assay: Acceptor substrate specificity of recombinant β-galactoside-α2,3-sialyltransferase (mono-, di-, trisaccharides); assay type: biochemical, Photobacterium phosphoreum
Source text: as §1, §2, §3, §4

[5] = Table 16: 1 μmol acceptor, pH 5.0, about 2.5 mU enzyme, 20° C., 14 hours
[6] = Table 16: activity toward lactose set to 100, 20° C., 14 hours
[7] = Table 17: 1 μmol acceptor, pH 5.0, 1.0 mU per reaction, 30° C., 0.5 minutes or 2 minutes
[8] = Table 17: activity toward lactose set to 100, 30° C., 0.5 minutes or 2 minutes
[9] = Table 17: 1 μmol acceptor, pH 5.0, 2.3 mU per reaction, 30° C., 0.5 minutes or 2 minutes
[10] = Table 18: 0.2 μmol acceptor (8.4 mM), pH 5.0, 1.0 mU per reaction, 30° C., 2 minutes
[11] = Table 18: activity toward lactose set to 100, 0.2 μmol acceptor, 30° C., 2 minutes
[12] = Table 18: 0.2 μmol acceptor (8.4 mM), pH 5.0, 23 mU per reaction, 30° C., 2 minutes

Compound: CO[C@H]1O[C@H](CO)[C@H](O)[C@H](O)[C@H]1O [Methylαgalactopyranoside, methyl-α-D-galactopyranoside]
- FAJ-N1C0 Sialyltransferase activity [1]: 10.3 nmol/min
- FAJ-N1C0 Sialyltransferase activity Relative activity (%) [1]: 135%
- ISH224-N1C0 Sialyltransferase activity [2, 5]: 9.5 nmol/min
- ISH224-N1C0 Sialyltransferase activity Relative activity (%) [2, 6]: 113%
- ISH224-N1C0 Sialyltransferase activity [2, 7]: 8.49 nmol/min
- ISH224-N1C0 Sialyltransferase activity Relative activity (%) [2, 8]: 823%
- Amount of transferred sialic acid [3]: 60.0 nmol
- ISH467-N2C0 Sialyltransferase activity [4, 5]: 10.5 nmol/min
- ISH467-N2C0 Sialyltransferase activity Relative activity (%) [4, 6]: 134%
- ISH467-N2C0 Sialyltransferase activity [4, 9]: 10.38 nmol/min
- ISH467-N2C0 Sialyltransferase activity Relative activity (%) [4, 8]: 452%

Compound: CO[C@@H]1O[C@H](CO)[C@@H](O)[C@H](O)[C@H]1O [Methylβglucopyranoside, methyl-β-D-glucopyranoside]
- FAJ-N1C0 Sialyltransferase activity [1]: 4.0 nmol/min
- FAJ-N1C0 Sialyltransferase activity Relative activity (%) [1]: 52%
- ISH224-N1C0 Sialyltransferase activity [2, 5]: 3.7 nmol/min
- ISH224-N1C0 Sialyltransferase activity Relative activity (%) [2, 6]: 43%
- ISH224-N1C0 Sialyltransferase activity [2, 7]: 0.27 nmol/min
- ISH224-N1C0 Sialyltransferase activity Relative activity (%) [2, 8]: 26%
- ISH467-N2C0 Sialyltransferase activity [4, 5]: 3.6 nmol/min
- ISH467-N2C0 Sialyltransferase activity Relative activity (%) [4, 6]: 46%
- ISH467-N2C0 Sialyltransferase activity [4, 9]: 0.76 nmol/min
- ISH467-N2C0 Sialyltransferase activity Relative activity (%) [4, 8]: 33%

Compound: CO[C@H]1O[C@H](CO)[C@@H](O)[C@H](O)[C@@H]1O [Methylαmannopyranoside, methyl-α-D-mannopyranoside]
- FAJ-N1C0 Sialyltransferase activity [1]: 4.3 nmol/min
- FAJ-N1C0 Sialyltransferase activity Relative activity (%) [1]: 57%
- ISH224-N1C0 Sialyltransferase activity [2, 5]: 4.7 nmol/min
- ISH224-N1C0 Sialyltransferase activity Relative activity (%) [2, 6]: 56%
- ISH224-N1C0 Sialyltransferase activity [2, 7]: 1.11 nmol/min
- ISH224-N1C0 Sialyltransferase activity Relative activity (%) [2, 8]: 108%
- ISH467-N2C0 Sialyltransferase activity [4, 5]: 5.5 nmol/min
- ISH467-N2C0 Sialyltransferase activity Relative activity (%) [4, 6]: 71%
- ISH467-N2C0 Sialyltransferase activity [4, 9]: 1.38 nmol/min
- ISH467-N2C0 Sialyltransferase activity Relative activity (%) [4, 8]: 60%

Compound: CO[C@@H]1O[C@H](CO)[C@H](O)[C@H](O[C@@H]2O[C@H](CO)[C@H](O)[C@H](O)[C@H]2O)[C@H]1O [methyl-β-D-galactopyranosyl-β1,3-galactopyranoside]
- ISH224-N1C0 Sialyltransferase activity [2, 10]: 5.52 nmol/min
- ISH224-N1C0 Sialyltransferase activity Relative activity (%) [2, 11]: 331%
- ISH467-N2C0 Sialyltransferase activity [4, 12]: 5.17 nmol/min
- ISH467-N2C0 Sialyltransferase activity Relative activity (%) [4, 11]: 222%

Compound: CO[C@H]1O[C@H](CO)[C@@H](O)[C@H](O)[C@H]1O [Methylαglucopyranoside, methyl-α-D-glucopyranoside]
- FAJ-N1C0 Sialyltransferase activity [1]: 4.7 nmol/min
- FAJ-N1C0 Sialyltransferase activity Relative activity (%) [1]: 62%
- ISH224-N1C0 Sialyltransferase activity [2, 5]: 4.3 nmol/min
- ISH224-N1C0 Sialyltransferase activity Relative activity (%) [2, 6]: 51%
- ISH224-N1C0 Sialyltransferase activity [2, 7]: 0.70 nmol/min
- ISH224-N1C0 Sialyltransferase activity Relative activity (%) [2, 8]: 68%
- ISH467-N2C0 Sialyltransferase activity [4, 5]: 6.2 nmol/min
- ISH467-N2C0 Sialyltransferase activity Relative activity (%) [4, 6]: 79%
- ISH467-N2C0 Sialyltransferase activity [4, 9]: 1.11 nmol/min
- ISH467-N2C0 Sialyltransferase activity Relative activity (%) [4, 8]: 48%

Compound: CO[C@H]1O[C@H](C)[C@H](O)[C@H](O)[C@H]1O [Methylαfucopyranoside, methyl-α-D-fucopyranoside]
- ISH224-N1C0 Sialyltransferase activity [2, 7]: 0.70 nmol/min
- ISH224-N1C0 Sialyltransferase activity Relative activity (%) [2, 8]: 68%
- ISH467-N2C0 Sialyltransferase activity [4, 9]: 1.13 nmol/min
- ISH467-N2C0 Sialyltransferase activity Relative activity (%) [4, 8]: 49%

Compound: CO[C@@H]1O[C@H](CO)[C@@H](O)[C@H](O)[C@@H]1O [Methylβmannopyranoside, methyl-β-D-mannopyranoside]
- ISH224-N1C0 Sialyltransferase activity [2, 7]: 1.03 nmol/min
- ISH224-N1C0 Sialyltransferase activity Relative activity (%) [2, 8]: 100%
- ISH467-N2C0 Sialyltransferase activity [4, 9]: 1.45 nmol/min
- ISH467-N2C0 Sialyltransferase activity Relative activity (%) [4, 8]: 63%

Compound: CO[C@@H]1O[C@H](C)[C@H](O)[C@H](O)[C@H]1O [Methylβfucopyranoside, methyl-β-D-fucopyranoside]
- ISH224-N1C0 Sialyltransferase activity [2, 7]: 0.50 nmol/min
- ISH224-N1C0 Sialyltransferase activity Relative activity (%) [2, 8]: 48%
- ISH467-N2C0 Sialyltransferase activity [4, 9]: 0.97 nmol/min
- ISH467-N2C0 Sialyltransferase activity Relative activity (%) [4, 8]: 42%

Compound: CC(=O)N[C@H]1C(O)O[C@H](CO)[C@@H](O)[C@@H]1O (some centres unmarked) [N-Acetylglucosamine, N-acetylglucosamine]
- FAJ-N1C0 Sialyltransferase activity [1]: 4.2 nmol/min
- FAJ-N1C0 Sialyltransferase activity Relative activity (%) [1]: 55%
- ISH224-N1C0 Sialyltransferase activity [2, 5]: 5.7 nmol/min
- ISH224-N1C0 Sialyltransferase activity Relative activity (%) [2, 6]: 68%
- ISH224-N1C0 Sialyltransferase activity [2, 7]: 0.51 nmol/min
- ISH224-N1C0 Sialyltransferase activity Relative activity (%) [2, 8]: 50%
- ISH467-N2C0 Sialyltransferase activity [4, 5]: 5.0 nmol/min
- ISH467-N2C0 Sialyltransferase activity Relative activity (%) [4, 6]: 63%
- ISH467-N2C0 Sialyltransferase activity [4, 9]: 0.91 nmol/min
- ISH467-N2C0 Sialyltransferase activity Relative activity (%) [4, 8]: 40%

Compound: CO[C@H]1O[C@H](CO)[C@H](O)[C@H](O[C@H]2O[C@H](CO)[C@H](O)[C@H](O)[C@H]2O)[C@H]1O [methyl-α-D-galactopyranosyl-α1,3-galactopyranoside]
- ISH224-N1C0 Sialyltransferase activity [2, 10]: 8.80 nmol/min
- ISH224-N1C0 Sialyltransferase activity Relative activity (%) [2, 11]: 528%
- ISH467-N2C0 Sialyltransferase activity [4, 12]: 7.17 nmol/min
- ISH467-N2C0 Sialyltransferase activity Relative activity (%) [4, 11]: 308%
